This is an account of results in patent publication US20090221581A1, “Methods of treating pain” (priority 2005, published 2009).

One test has as its target T1, CDK1/CycB (Homo sapiens, UniProt P06493).
T1 construct: made in house; host or cells: Sf9 insect cells, baculovirus
Nature of the test: In vitro kinase inhibition assay, CDK1/CycB. It is filed as biochemical.

The target in another test is T2, CDK3/CycE (Homo sapiens, UniProt Q00526).
T2 construct: made in house; host or cells: Sf9 insect cells, baculovirus
T2 sequence (Q00526 whole entry): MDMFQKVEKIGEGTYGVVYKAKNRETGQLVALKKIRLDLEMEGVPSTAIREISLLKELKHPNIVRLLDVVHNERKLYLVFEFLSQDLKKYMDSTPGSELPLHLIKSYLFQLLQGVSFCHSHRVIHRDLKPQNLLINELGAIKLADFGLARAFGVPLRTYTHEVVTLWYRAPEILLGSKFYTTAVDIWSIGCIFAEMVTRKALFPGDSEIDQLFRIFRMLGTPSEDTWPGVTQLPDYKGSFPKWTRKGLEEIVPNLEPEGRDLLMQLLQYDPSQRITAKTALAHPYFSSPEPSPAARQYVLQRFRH
T2 sequence (P24864 whole entry partner): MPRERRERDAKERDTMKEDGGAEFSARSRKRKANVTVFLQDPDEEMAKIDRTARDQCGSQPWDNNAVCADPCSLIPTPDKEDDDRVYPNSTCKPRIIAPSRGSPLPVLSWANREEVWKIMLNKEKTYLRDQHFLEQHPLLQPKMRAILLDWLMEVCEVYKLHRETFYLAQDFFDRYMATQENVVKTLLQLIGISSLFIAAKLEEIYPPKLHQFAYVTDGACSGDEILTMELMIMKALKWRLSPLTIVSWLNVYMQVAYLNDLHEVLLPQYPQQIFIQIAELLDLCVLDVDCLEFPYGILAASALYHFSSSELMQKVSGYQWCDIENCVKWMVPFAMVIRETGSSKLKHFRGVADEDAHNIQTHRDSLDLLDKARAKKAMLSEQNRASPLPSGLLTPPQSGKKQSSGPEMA
In words: In vitro kinase inhibition assay, CDK3/CycE. It is filed as biochemical.

Another test addresses T3, CDK5/p35NCK (Homo sapiens, UniProt Q00535).
T3 construct: made in house; host or cells: Sf9 insect cells, baculovirus
Nature of the test: In vitro kinase inhibition assay, CDK5/p35NCK. The format is biochemical.

The next test concerns the target T4, CDK7/CycH/MAT1 (Homo sapiens, UniProt P50613).
T4 construct: made in house; host or cells: Sf9 insect cells, baculovirus
Nature of the test: In vitro kinase inhibition assay, CDK7/CycH/MAT1. It is filed as biochemical.

Another test deals with SNI mice. In words: Spared nerve injury (SNI) model of chronic neuropathic pain, von Frey assay. The format is in vivo. The source says: As outlined above, the spared nerve injury (SNI) model (see FIG. 1) involves a lesion of two of the three terminal branches of the sciatic nerve (tibial and common peroneal nerves) of experimental animals, leaving the sural nerve intact. SNI results in mechanical and thermal allodynia in the non-injured sural nerve skin territory (Decosterd & Woolf, Pain 2000; 87:149-158; Tsujino et al., Mol. Cel. Neurosci. 2000; 15:170-182).
Wildtype mice (strain C3HeB/FeJ) (age, sex and weight matched) were anesthetized with Hypnorm (0.315 mg/ml fentanyl citrate+10 mg/ml fluanisone; Janssen)/Hypnovel (5 mg/ml midazolam; Roche Applied Sciences)/water at a ratio of 1:1:2 at 4 μl/g prior to surgical preparation.
Subsequently, an incision was made under aseptic precautions in the ipsi-lateral right hind leg of all mice just above the level of the knee, exposing the three terminal branches of the sciatic nerve: the common peroneal, tibial, and sural nerves. The common peroneal and tibial nerves were ligated tightly with 7/0 silk and sectioned distal to the ligation removing ≈2 mm of distal nerve stump. The sural branch remained untouched during the procedure (denoted herein “SNI ipsi”). The overlying muscle and skin was sutured, and the animals were allowed to recover and to permit wound healing. In the same mice, the sciatic nerve branches of the contra-lateral left hind leg were exposed but not lesioned (denoted herein “SNI contra-lateral”). Mice that underwent spared nerve injury are hereinafter denoted “SNI mice”.
After recovery from surgery and wound healing, SNI mice received intraperitoneal (i.p.) injections of CDK-inhibiting compounds. In particular, compound A and B as disclosed herein, belonging to the class of 4,6-disubstituted aminopyrimidine derivatives as described in WO2005/026129 were administered. […]
Injection of inhibitor or vehicle, and subsequent measurements of paw withdrawal threshold upon mechanical stimulation in von Frey assays were performed at day 0, day 7, day 21 and day 28 post SNI. Reflex nociceptive responses to mechanical stimulation were measured in a von Frey assay 30 min after each injection. An additional von Frey measurement was performed at day 14, but without prior injection of compound or vehicle.
Mice which underwent SNI and subsequent administration of the CDK-inhibiting compounds of the present invention were tested for signs of mechanical allodynia post nerve injury and post administration in a von Frey assay (Decosterd and Woolf, Pain 2000; 87:149-158). This assay determines the mechanical threshold upon which a stimulus, which normally is not painful, is recognized by an animal as uncomfortable or painful. SNI ipsi and SNI contra baselines, respectively, were established.
Mechanical thresholds of SNI mice were quantified using the up-down method based on Chaplan et al. (1994) and Malmberg and Basbaum (1998):
Mice were placed in plexiglass cylinders of about 9.5 cm in diameter, 14 cm high with four vent holes towards the top and a Plexiglas lid. The cylinders were placed on an elevated mesh surface (7×7 mm squares). Prior to the day of testing, the mice were adapted to the testing cylinders for 1-2 hours. On the day of testing the mice were adapted to the cylinders for about an hour, wherein the adaptation time depends on factors such as the strain of the mouse and the number of times they have been tested previously. In general, testing may begin once the mice are calm and stop exploring the new environment.
For testing mice, filaments 2.44, 2.83, 3.22, 3.61, 3.84, 4.08, and 4.31 (force range=0.04 to 2.0 g) were used. The […] filament was applied first. Said filament was gently applied to the plantar surface of one paw, allowed to bend, and held in position for 2-4 seconds. Whenever a positive response to the stimulus (flexion reaction) occurred, the next weaker von Frey filament was applied; whenever a negative response (no reaction) occurred, the next stronger force was applied. […]

In another test the test system is formalin-treated mice. In words: Formalin assay, licking behaviour. As to conditions: 30 mg/kg i.p. 30 min before formalin injection. The format is in vivo. The procedure:
The formalin assay in mice is a valid and reliable behavioral model of nociception and is sensitive to various classes of analgesic drugs (Hunskaar S & Hole K, Pain. 1987, 30(1):103-14.) The noxious stimulus consists of a subcutaneous or an intraplantar injection of 10 μl diluted formalin (2% in saline) into the left hind paw. The response is licking and flinching of the injected paw.
Age, sex and weight matched wildtype mice (C3HeB/FeJ) were used in this assay. Prior to formalin injection, the animals were randomly subdivided into experimental groups of 10 animals each. […]
For formalin injection, the mouse was held with a paper towel in order to avoid disturbance of the injection by movements. […] The behavior of the formalin- and CDK-inhibitor-treated mice was analyzed as described below.
The behaviour of the formalin-treated mice, i.e. licking and flinching, was monitored by an automated tracking system (Ethovision 3.0 Color Pro, Noldus, Wageningen, Netherlands) over a defined period of time: measurement was initiated 5 min after formalin injection and terminated 30 min after formalin injection. […]
As another possibility of assay read-out, the licking behaviour of the individual animals was tracked manually based on video files. Licking times were recorded over 30 minutes after formalin injection and subdivided for three different licking zones (dorsum, plantar, toes). […]

“Also recorded” adds a separate entry of the source.

T1 sequence (P06493 whole entry): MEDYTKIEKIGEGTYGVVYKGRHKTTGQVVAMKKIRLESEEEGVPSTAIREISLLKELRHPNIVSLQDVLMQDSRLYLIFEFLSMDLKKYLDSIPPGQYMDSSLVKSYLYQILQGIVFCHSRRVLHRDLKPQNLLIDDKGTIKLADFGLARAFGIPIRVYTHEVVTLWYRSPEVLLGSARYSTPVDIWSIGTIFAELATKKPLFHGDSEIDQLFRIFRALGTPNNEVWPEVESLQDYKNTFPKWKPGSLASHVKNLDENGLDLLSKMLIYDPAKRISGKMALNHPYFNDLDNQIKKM
T1 sequence (P14635 whole entry partner): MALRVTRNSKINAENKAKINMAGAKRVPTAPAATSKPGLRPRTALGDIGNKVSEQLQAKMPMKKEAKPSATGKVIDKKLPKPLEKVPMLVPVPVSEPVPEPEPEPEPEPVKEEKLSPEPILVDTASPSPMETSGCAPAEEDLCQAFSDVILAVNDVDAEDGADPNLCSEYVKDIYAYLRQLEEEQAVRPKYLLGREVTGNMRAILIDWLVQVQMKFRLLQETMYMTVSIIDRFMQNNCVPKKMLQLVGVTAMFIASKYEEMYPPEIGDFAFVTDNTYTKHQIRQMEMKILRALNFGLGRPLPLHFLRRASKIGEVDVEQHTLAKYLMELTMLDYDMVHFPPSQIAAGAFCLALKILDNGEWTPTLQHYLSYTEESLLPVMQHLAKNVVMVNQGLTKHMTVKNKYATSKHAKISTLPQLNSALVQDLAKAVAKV
T3 sequence (Q00535 whole entry): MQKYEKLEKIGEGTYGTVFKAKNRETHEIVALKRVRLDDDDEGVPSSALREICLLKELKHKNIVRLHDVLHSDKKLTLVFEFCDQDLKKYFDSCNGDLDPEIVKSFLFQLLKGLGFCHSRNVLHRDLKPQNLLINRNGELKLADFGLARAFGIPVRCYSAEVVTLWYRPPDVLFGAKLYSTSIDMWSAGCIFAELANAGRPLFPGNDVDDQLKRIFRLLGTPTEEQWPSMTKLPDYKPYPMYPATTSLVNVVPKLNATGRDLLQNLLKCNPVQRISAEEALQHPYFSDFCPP
T3 sequence (Q15078 whole entry partner): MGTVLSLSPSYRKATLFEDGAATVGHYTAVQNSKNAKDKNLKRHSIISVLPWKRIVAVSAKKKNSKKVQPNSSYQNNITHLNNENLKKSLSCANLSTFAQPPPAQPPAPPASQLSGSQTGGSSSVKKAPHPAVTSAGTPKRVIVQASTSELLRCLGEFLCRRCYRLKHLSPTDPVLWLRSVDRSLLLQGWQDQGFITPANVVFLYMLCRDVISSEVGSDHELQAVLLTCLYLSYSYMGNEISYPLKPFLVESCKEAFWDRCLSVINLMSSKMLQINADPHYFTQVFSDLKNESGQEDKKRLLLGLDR
T4 sequence (P50613 whole entry): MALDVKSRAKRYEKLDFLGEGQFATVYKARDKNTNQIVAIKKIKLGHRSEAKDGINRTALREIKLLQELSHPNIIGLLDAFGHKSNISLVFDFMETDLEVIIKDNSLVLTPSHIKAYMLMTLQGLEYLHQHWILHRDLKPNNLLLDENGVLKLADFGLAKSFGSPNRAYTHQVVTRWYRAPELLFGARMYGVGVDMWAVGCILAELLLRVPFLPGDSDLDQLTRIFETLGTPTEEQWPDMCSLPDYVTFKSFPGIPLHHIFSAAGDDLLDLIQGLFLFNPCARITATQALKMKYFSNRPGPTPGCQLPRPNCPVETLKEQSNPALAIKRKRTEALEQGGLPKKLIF
T4 sequence (P51946 whole entry partner): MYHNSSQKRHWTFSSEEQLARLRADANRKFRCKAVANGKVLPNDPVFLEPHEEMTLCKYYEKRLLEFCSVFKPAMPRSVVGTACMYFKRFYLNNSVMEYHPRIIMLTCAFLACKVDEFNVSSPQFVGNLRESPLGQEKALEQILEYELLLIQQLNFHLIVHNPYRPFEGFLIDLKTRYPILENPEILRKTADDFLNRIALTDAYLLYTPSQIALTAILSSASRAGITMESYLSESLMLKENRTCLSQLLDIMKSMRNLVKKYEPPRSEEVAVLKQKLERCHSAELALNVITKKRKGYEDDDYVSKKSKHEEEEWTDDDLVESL
T4 sequence (P51948 whole entry partner): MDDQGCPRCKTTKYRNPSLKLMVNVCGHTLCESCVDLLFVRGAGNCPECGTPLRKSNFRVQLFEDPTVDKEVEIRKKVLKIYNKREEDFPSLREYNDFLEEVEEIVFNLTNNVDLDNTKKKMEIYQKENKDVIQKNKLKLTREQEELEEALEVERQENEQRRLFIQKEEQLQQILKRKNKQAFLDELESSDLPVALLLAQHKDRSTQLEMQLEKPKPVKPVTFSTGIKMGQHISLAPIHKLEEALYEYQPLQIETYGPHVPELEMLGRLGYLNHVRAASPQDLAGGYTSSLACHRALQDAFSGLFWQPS

One may read the IC50 as the concentration that gives 50% inhibition. A low value points to greater potency in that assay. With `COc1ccccc1-c1cc(Nc2cccc(S(N)(=O)=O)c2)ncn1` [Compound A], the IC50 against CDK1/CycB was determined as 15.8 µM; at CDK3/CycE, 18.5 µM; against CDK5/p35NCK, 58.1 µM; against CDK7/CycH/MAT1, 10 µM. For the same compound, the “effect on von Frey mechanical threshold” value with SNI mice (30 mg/kg at midnight and 8.00 a.m., measured 8.30 a.m., day 28 post SNI) is on record as “significant increases in thresholds”; in the test on SNI mice (30 mg/kg i.p. 30 minutes prior to measurements, day 21 post SNI) it was “significant increase of threshold values”; in the test with SNI mice (30 mg/kg i.p., day 7 post SNI), “does not show any effect”. Moreover, the “effect on SNI-induced allodynia (von Frey)” value in the test on SNI mice (30 mg/kg i.p. 30 minutes before von Frey testing) is recorded as “hypoalgesic effect”. In addition, the “average von Frey threshold value, contra-lateral paw” value in the test with SNI mice (30 mg/kg i.p., day 21 and 28) is reported as around 0.4 g. Also, in the test with SNI mice (30 mg/kg i.p., day 21 and 28), the “average von Frey threshold value, ipsi-lateral paw” value is listed as around 0.3 g. Also, the “fluorescent dot size of the formalin-treated paw” value in the test with formalin-treated mice is given as “no significant reduction of fluorescent dot size”. Also, the licking time entry in the test with formalin-treated mice (vs vehicle, 30 mg/kg) is “reduction in licking time; also recorded: clearly reduced”.
